Measurements: patent US7348425B2, “Inhibitors of HCV replication” (Bristol-Myers Squibb Company, priority 2004, dated 2008)

What was measured:
HCV replicon = HCV replicon FRET assay; format: cell-based; details: Hepatitis C virus; FRET assay; read-out: EC50
Summary of the method: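 Replicon cells (± Renilla luciferase reporter) incubated with titrated compound at 37 °C; NS3 protease activity read by FRET peptide cleavage (20 uM EDANS/DABCYL substrate, 340/490 nm kinetic) or luciferase.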

[1] = target: T1, HCV NS5B RdRp genotype 1b (Hepatitis C virus genotype 1b, UniProt Q9WMX2); assay: Modified HCV NS5B RdRp enzyme assay (with preincubation); format: biochemical
T1 construct: The protein was expressed with an 18 amino acid C-terminal truncation to enhance the solubility; made in house; host or cells: E. coli BL21 (DE3), pET21a
Summary of the method: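 C-terminally truncated (Δ18) genotype 1b NS5B from E. coli was preincubated (14 nM) with compound, then reaction started with polyA template (0.2 nM), ³H-UTP (0.29 μM) and dT12 primer (20 nM) precaptured on SPA beads. Reaction ran 4 h at 30 °C in pH 7.5 Hepes buffer with 2% DMSO. IC50 came from seven concentrations.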

[2] = modified method (with preincubation)

T1 sequence (Q9WMX2 2420-2992): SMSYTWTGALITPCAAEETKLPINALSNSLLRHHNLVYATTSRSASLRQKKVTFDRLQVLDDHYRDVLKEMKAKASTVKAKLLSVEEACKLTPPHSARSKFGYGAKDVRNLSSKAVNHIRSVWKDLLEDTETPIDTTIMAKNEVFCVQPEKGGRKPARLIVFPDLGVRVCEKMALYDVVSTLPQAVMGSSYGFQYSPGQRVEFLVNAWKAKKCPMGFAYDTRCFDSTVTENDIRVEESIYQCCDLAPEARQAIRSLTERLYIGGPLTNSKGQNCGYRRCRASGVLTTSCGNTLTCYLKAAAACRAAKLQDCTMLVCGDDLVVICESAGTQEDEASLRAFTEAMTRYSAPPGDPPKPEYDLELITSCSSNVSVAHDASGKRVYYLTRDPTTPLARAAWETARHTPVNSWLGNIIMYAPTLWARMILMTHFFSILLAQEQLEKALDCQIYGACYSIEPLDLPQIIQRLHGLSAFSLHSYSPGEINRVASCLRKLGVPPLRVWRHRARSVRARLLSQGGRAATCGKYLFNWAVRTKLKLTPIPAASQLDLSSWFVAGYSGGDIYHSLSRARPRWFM

Row | SMILES | EC50 (HCV replicon) | IC50 [1, 2] | IC50 ([1]; preincubation protocol)
1 | O=C(O)/C=C/c1ccc(NC(=O)C2(NC(=O)c3ccc4c(C5CCCCC5)c5n(c4c3)CCCc3cc(O)ccc3-5)CCCC2)cc1 | 0.01 to 1 µM | 0.02 to 1 µM | –
2 | O=C1Cn2c(c(C3CCCCC3)c3ccc(C(=O)NC4(C(=O)Nc5ncc(-c6ccc(C(=O)O)cc6)s5)CCCC4)cc32)-c2ccccc2N1 | 0.01 to 1 µM | 0.02 to 1 µM | –
3 | O=C1Cn2c(c(C3CCCCC3)c3ccc(C(=O)NC4(C(=O)Nc5nccs5)CCCC4)cc32)-c2ccccc2N1 | 0.01 to 1 µM | 0.02 to 1 µM | –
4 | CN(C)CCNC(=O)C1=Cc2ccccc2-c2c(C3CCCCC3)c3ccc(C(=O)O)cc3n2C1 | 0.01 to 1 µM | 0.02 to 1 µM | –
5 | O=C(O)/C=C/c1ccc(NC(=O)C2(NC(=O)c3ccc4c(C5CCCCC5)c5n(c4c3)CCCc3nccnc3-5)CCCC2)cc1 | < 0.1 µM | 0.02 to 1 µM | –
6 | CN(C)CCNC(=O)C1=Cc2ccccc2-c2c(C3CCCCC3)c3ccc(C(=O)NC4(C(=O)Nc5ccc(/C=C/C(=O)O)cc5)CCCC4)cc3n2C1 | 0.01 to 1 µM | 0.02 to 1 µM | –
7 | CCOC(=O)c1cc2cc(NC(=O)C3(NC(=O)c4ccc5c(C6CCCCC6)c6n(c5c4)CC(=O)Nc4ccccc4-6)CCCC3)ccc2n1C | 0.01 to 1 µM | 0.02 to 1 µM | –
8 | CC(=O)N1CCn2c(c(C3CCCCC3)c3ccc(C(=O)NS(=O)(=O)N(C)C)cc32)-c2ccccc21 | 0.01 to 1 µM | 0.02 to 1 µM | –
9 | CCOC(=O)N1CCn2c(c(C3CCCCC3)c3ccc(C(=O)NS(=O)(=O)C4CC4)cc32)-c2ccccc21 | 0.01 to 1 µM | 0.02 to 1 µM | –
10 | O=C(NS(=O)(=O)C1CC1)c1ccc2c(C3CCCCC3)c3n(c2c1)CCNc1ccccc1-3 | 0.01 to 1 µM | 0.02 to 1 µM | –
11 | CS(=O)(=O)NC(=O)c1ccc2c(C3CCCCC3)c3n(c2c1)CCNc1ccccc1-3 | 0.01 to 1 µM | 0.02 to 1 µM | –
12 | CC(C)(C)OC(=O)N1CCn2c(c(C3CCCCC3)c3ccc(C(=O)NS(C)(=O)=O)cc32)-c2ccccc21 | 0.01 to 1 µM | 0.02 to 1 µM | –
13 | COc1ccc2c(c1)C=C(C(=O)N1CCOCC1)Cn1c-2c(C2CCCCC2)c2ccc(C(=O)NS(=O)(=O)C3CC3)cc21 | 0.05 to 1 µM | – | 0.01 to 1 µM
14 | COc1ccc2c(c1)C=C(C(=O)N1CCC[C@@H](O)C1)Cn1c-2c(C2CCCCC2)c2ccc(C(=O)NS(=O)(=O)N(C)C)cc21 | 0.05 to 1 µM | – | 0.01 to 1 µM
15 | COc1ccc2c(c1)CC(F)(C(=O)O)Cn1c-2c(C2CCCCC2)c2ccc(C(=O)NS(=O)(=O)N(C)C)cc21 (stereo not shown) | 1 to 10 µM | – | 0.01 to 1 µM
16 | COc1ccc2c(c1)CC(F)(C(=O)N1C[C@@H](C)O[C@@H](C)C1)Cn1c-2c(C2CCCCC2)c2ccc(C(=O)NS(=O)(=O)N(C)C)cc21 (stereo partly shown) | 0.05 to 1 µM | – | 0.01 to 1 µM
17 | CN(C)S(=O)(=O)NC(=O)c1ccc2c(C3CCCCC3)c3n(c2c1)CCCN(C(=O)OC(C)(C)C)c1ccccc1-3 | 0.05 to 1 µM | – | 0.01 to 1 µM
18 | CN(C)S(=O)(=O)NC(=O)c1ccc2c(C3CCCCC3)c3n(c2c1)CCCNc1ccccc1-3 | 0.05 to 1 µM | – | 0.01 to 1 µM
19 | COc1ccc2c(c1)C=C(C(=O)N1CC(C)NC(C)C1)Cn1c-2c(C2CCCCC2)c2ccc(C(=O)NS(=O)(=O)N(C)C)cc21 (stereo not shown) | 0.05 to 1 µM | – | 0.01 to 1 µM

Row | SMILES | EC50 (HCV replicon) | IC50 [1, 2] | IC50 ([1]; preincubation protocol)
20 | COc1ccc2c(c1)C=C(C(=O)N1CC[C@@H](O)C1)Cn1c-2c(C2CCCCC2)c2ccc(C(=O)NS(=O)(=O)N(C)C)cc21 | 0.05 to 1 µM | – | 0.01 to 1 µM
21 | COc1ccc2c(c1)C=C(C(=O)N1CCC[C@H](O)C1)Cn1c-2c(C2CCCCC2)c2ccc(C(=O)NS(=O)(=O)N(C)C)cc21 | 0.05 to 1 µM | – | 0.01 to 1 µM
22 | O=C(O)c1ccc2c(C3CCCCC3)c3n(c2c1)C(C(=O)N1CCOCC1)CNc1ccccc1-3 (stereo not shown) | 1 to 10 µM | – | > 1 µM
23 | COC(=O)c1ccc2c(C3CCCCC3)c3n(c2c1)CC(CO)=Cc1ccccc1-3 | 0.05 to 1 µM | – | > 1 µM
24 | COc1ccc2c(c1)C=C(C(=O)N1[C@H](C)CC[C@H]1C)Cn1c-2c(C2CCCCC2)c2ccc(C(=O)NS(=O)(=O)N(C)C)cc21 | 0.05 to 1 µM | – | 0.01 to 1 µM
25 | CCN(C)C(=O)C1=Cc2cc(OC)ccc2-c2c(C3CCCCC3)c3ccc(C(=O)NS(=O)(=O)N(C)C)cc3n2C1 | 0.05 to 1 µM | – | 0.01 to 1 µM
26 | C[C@@H]1CN(C(=O)C2=Cc3ccccc3-c3c(C4CCCCC4)c4ccc(C(=O)NC5(C(=O)Nc6ccc(-c7cnco7)cc6)CCCC5)cc4n3C2)C[C@H](C)O1 | 0.05 to 1 µM | – | 0.01 to 1 µM
27 | C[C@@H]1CN(C(=O)C2=Cc3ccccc3-c3c(C4CCCCC4)c4ccc(C(=O)NC5(C(=O)Nc6ccc(-n7cncn7)cc6)CCCC5)cc4n3C2)C[C@H](C)O1 | 0.05 to 1 µM | – | 0.01 to 1 µM
28 | Cc1cc(CNC(=O)c2ccc3c(C4CCCCC4)c4n(c3c2)CC(C(=O)N2C[C@@H](C)O[C@@H](C)C2)=Cc2ccccc2-4)n[nH]1 | 0.05 to 1 µM | – | 0.01 to 1 µM
29 | COc1ccc2c(c1)C=C(C(=O)N1CCOC(CN(C)C)C1)Cn1c-2c(C2CCCCC2)c2ccc(C(=O)NS(=O)(=O)N(C)C)cc21 (stereo not shown) | 0.05 to 1 µM | – | 0.01 to 1 µM
30 | COc1ccc2c(c1)C=C(C(=O)N1CCC(O)CC1)Cn1c-2c(C2CCCCC2)c2ccc(C(=O)NS(=O)(=O)N(C)C)cc21 | 0.05 to 1 µM | – | 0.01 to 1 µM
31 | COc1ccc2c(c1)C(=O)n1c-2c(C2CCCCC2)c2ccc(C(=O)NS(=O)(=O)N(C)C)cc21 | 1 to 10 µM | – | 0.01 to 1 µM
32 | COC(=O)c1ccc2c(C3CCCCC3)c3n(c2c1)CC(C(=O)N1C[C@@H](C)O[C@@H](C)C1)=Cc1cc(F)ccc1-3 | 1 to 10 µM | – | > 1 µM
33 | C[C@@H]1CN(C(=O)C2=Cc3cc(F)ccc3-c3c(C4CCCCC4)c4ccc(C(=O)O)cc4n3C2)C[C@H](C)O1 | 0.05 to 1 µM | – | 0.01 to 1 µM
34 | C[C@@H]1CN(C(=O)C2=Cc3cc(F)ccc3-c3c(C4CCCCC4)c4ccc(C(=O)NS(=O)(=O)N(C)C)cc4n3C2)C[C@H](C)O1 | 0.05 to 1 µM | – | 0.01 to 1 µM
35 | COC(=O)c1ccc2c(C3CCCCC3)c3n(c2c1)CC(C(=O)N1C[C@@H](C)N[C@@H](C)C1)=Cc1cc(F)ccc1-3 | 1 to 10 µM | – | 0.01 to 1 µM
36 | C[C@@H]1CN(C(=O)C2=Cc3cc(F)ccc3-c3c(C4CCCCC4)c4ccc(C(=O)O)cc4n3C2)C[C@H](C)N1 | 0.05 to 1 µM | – | 0.01 to 1 µM
37 | COC(=O)c1ccc2c(C3CCCCC3)c3n(c2c1)C(C(=O)N1CCOCC1)CCc1ccccc1-3 (stereo not shown) | 0.05 to 1 µM | – | > 12.5 µM
38 | C[C@@H]1CN(C(=O)C2=Cc3ccccc3-c3c(C4CCCCC4)c4ccc(C(=O)NC5(C(=O)Nc6ncc(-c7ccc(C(=O)O)cc7)s6)CCCC5)cc4n3C2)C[C@H](C)O1 | 0.05 to 1 µM | – | 0.01 to 1 µM

Row | SMILES | EC50 (HCV replicon) | IC50 [1, 2] | IC50 ([1]; preincubation protocol)
39 | C[C@@H]1CN(C(=O)C2=Cc3ccccc3-c3c(C4CCCCC4)c4ccc(C(=O)NC5(C(=O)Nc6nccs6)CCCC5)cc4n3C2)C[C@H](C)O1 | 0.05 to 1 µM | – | 0.01 to 1 µM
40 | O=C(O)c1ccc2c(C3CCCCC3)c3n(c2c1)C(C(=O)N1CCOCC1)CCc1ccccc1-3 (stereo not shown) | > 3.3 µM | – | > 12.5 µM
41 | COc1ccc2c(c1)C=C(C(=O)N(C)CCO)Cn1c-2c(C2CCCCC2)c2ccc(C(=O)NS(=O)(=O)N(C)C)cc21 | 0.05 to 1 µM | – | < 0.02 µM
42 | COc1ccc2c(c1)C=C(C(=O)N(CCO)CCO)Cn1c-2c(C2CCCCC2)c2ccc(C(=O)NS(=O)(=O)N(C)C)cc21 | 0.05 to 1 µM | – | < 0.02 µM
43 | C[C@@H]1CN(C(=O)C2=Cc3ccccc3-c3c(C4CCCCC4)c4ccc(C(=O)NC5(C(=O)O)CCCC5)cc4n3C2)C[C@H](C)O1 | 0.05 to 1 µM | – | 0.01 to 1 µM
44 | COc1ccc2c(c1)CC(C(=O)N1C[C@@H](C)N[C@@H](C)C1)Cn1c-2c(C2CCCCC2)c2ccc(C(=O)NS(=O)(=O)N(C)C)cc21 (stereo partly shown) | 0.05 to 1 µM | – | 0.01 to 1 µM
45 | C[C@@H]1CN(C(=O)C2=Cc3cc(F)ccc3-c3c(C4CCCCC4)c4ccc(C(=O)NS(=O)(=O)N(C)C)cc4n3C2)C[C@H](C)N1 | 0.05 to 1 µM | – | 0.01 to 1 µM
46 | COc1ccc2c(c1)CC(C(=O)N(CCO)CCO)Cn1c-2c(C2CCCCC2)c2ccc(C(=O)NS(=O)(=O)N(C)C)cc21 (stereo not shown) | 0.05 to 1 µM | – | 0.01 to 1 µM
47 | COc1ccc2c(c1)CC(C(=O)N(C)CCO)Cn1c-2c(C2CCCCC2)c2ccc(C(=O)NS(=O)(=O)N(C)C)cc21 (stereo not shown) | 0.05 to 1 µM | – | 0.01 to 1 µM
48 | CNS(=O)(=O)NC(=O)c1ccc2c(C3CCCCC3)c3n(c2c1)CC(C(=O)N1C[C@@H](C)O[C@@H](C)C1)=Cc1cc(F)ccc1-3 | 0.05 to 1 µM | – | 0.01 to 1 µM
49 | CNCCNC(=O)c1ccc2c(C3CCCCC3)c3n(c2c1)CC(C(=O)N1C[C@@H](C)O[C@@H](C)C1)=Cc1ccccc1-3 | 0.05 to 1 µM | – | 0.01 to 1 µM
50 | CNS(=O)(=O)NC(=O)c1ccc2c(C3CCCCC3)c3n(c2c1)CC(C(=O)N1C[C@@H](C)O[C@@H](C)C1)Cc1ccccc1-3 (stereo partly shown) | 0.05 to 1 µM | – | 0.01 to 1 µM
51 | COC(=O)C1=Cc2c(OC)cccc2-c2c(C3CCCCC3)c3ccc(C(=O)OC)cc3n2C1 | > 3.3 µM | – | > 4 µM
52 | COC(=O)c1ccc2c(C3CCCCC3)c3n(c2c1)CC(C(=O)O)=Cc1c(OC)cccc1-3 | 1 to 10 µM | – | 1 to 10 µM
53 | COC(=O)c1ccc2c(C3CCCCC3)c3n(c2c1)CC(C(=O)N1C[C@@H](C)O[C@@H](C)C1)=Cc1cc(OC)ncc1-3 | > 1 µM | – | > 1 µM
54 | COc1cccc2c1C=C(C(=O)N1C[C@@H](C)O[C@@H](C)C1)Cn1c-2c(C2CCCCC2)c2ccc(C(=O)O)cc21 | 0.05 to 1 µM | – | 0.01 to 1 µM
55 | COc1ccc2c(c1O)C(O)n1c-2c(C2CCCCC2)c2ccc(C(=O)NS(=O)(=O)N(C)C)cc21 (stereo not shown) | > 0.1 µM | – | 1 to 10 µM
56 | COc1cc2c(cn1)-c1c(C3CCCCC3)c3ccc(C(=O)NS(=O)(=O)N(C)C)cc3n1CC(C(=O)N1C[C@@H](C)O[C@@H](C)C1)=C2 | > 1 µM | – | 1 to 10 µM
